Values quoted from earlier work in US20250235429A1, “TREATMENT OF DISEASES VIA ADMINISTRATION OF BUNTANETAP AND AN ANTIDIABETIC AGENT” (ANNOVIS BIO, INC., priority 2024, published 2025).

What was measured:
[1] = test system: APP/PS1 transgenic (tg) mouse model of AD; settings: cited from earlier work
[2] = test system: fully differentiated Down syndrome nerve cells; settings: cited from earlier work

Which memory and learning ([1]; APP/PS1 transgenic (tg) mouse model of AD) does the source give for CN1CC[C@]2(C)c3cc(OC(=O)Nc4ccccc4)ccc3N(C)C12 (stereo partly drawn) [Buntanetap, (3aR)-1,3a,8-trimethyl-1,2,3,3a,8,8a-hexahydropyrrolo[2,3-b]indol-5-yl phenylcarbamate] here?
The memory and learning was “Restored”.

What about the impaired synaptic transmission ([1]; hippocampus of APP/PS1 tg mice) of the same molecule?
The impaired synaptic transmission was “Normalized”.

And the “anterograde and retrograde vesicle transport” value [2]?
The value was “Normalized”.
